These results are taken from patent publication EP2790511B1 (Merck Sharp & Dohme Corp., priority 2011, dated 2013).

For one test, the target named is T1, hROMK (hKir1.1) (Homo sapiens, UniProt P48048).
T1 construct: expressed in transfected cells
T1 sequence (P48048 1-391): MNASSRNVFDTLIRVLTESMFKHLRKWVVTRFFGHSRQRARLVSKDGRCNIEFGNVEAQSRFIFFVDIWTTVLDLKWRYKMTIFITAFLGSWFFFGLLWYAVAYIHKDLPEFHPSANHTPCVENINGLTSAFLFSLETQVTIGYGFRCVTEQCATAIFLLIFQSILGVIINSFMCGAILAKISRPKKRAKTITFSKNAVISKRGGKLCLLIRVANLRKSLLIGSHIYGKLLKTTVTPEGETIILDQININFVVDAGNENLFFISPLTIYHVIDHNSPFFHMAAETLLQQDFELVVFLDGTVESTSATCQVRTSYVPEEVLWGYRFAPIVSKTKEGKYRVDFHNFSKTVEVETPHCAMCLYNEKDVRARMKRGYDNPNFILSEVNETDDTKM
Briefly: Thallium Flux Assay. The class given is cell-based. As to conditions: HEK293 cells stably expressing hROMK (hKir1.1), FLIPR-Tetra; read-out: Thallium Flux IC50. An outline of the steps: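 HEK293 cells stably expressing hROMK, loaded with FluxOR dye 90 min at ambient temperature, then compound 30 min with 0.3 mM ouabain in probenecid buffer pH 7.4.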
The IC50 is the concentration that gives 50% inhibition. Consider `COc1cc([C@@H]2CN3CCN(C(=O)Cc4cnc(-n5cnnn5)nc4)C[C@H]3CO2)ccc1C#N` [Example 144, 2-methoxy-4-[(3R,9aS)-8-{[2-(1H-tetrazol-1-yl)pyrimidin-5-yl]acetyl}octahydropyrazino[2,1-c][1,4]oxazin-3-yl]benzonitrile], for which the IC50 is 390 nM. Take `Cc1cc([C@@H]2CN3CCN(C(=O)Cc4ccc(-n5cnnn5)nc4)C[C@@H]3CO2)c(C)c(C#N)c1F` [Example 174, 2-fluoro-3,6-dimethyl-5-[(3R,9aR)-8-{[6-(1H-tetrazol-1-vl)pvridin-3-yl]acetyl}octahydropyrazino[2,1-c][1,4]oxazin-3-yl]benzonitrile]: the IC50 amounted to 350 nM. In the case of `COc1cc([C@@H]2CN3CCN(C(=O)Cc4ccc(-n5cnnn5)nc4)C[C@@H]3CO2)ccc1C#N` [Example 40, 2-methoxy-4-[(3R,9aR)-8-{[6-(1H-tetrazol-1-yl)pyridin-3-yl]acetyl}octahydropyrazino[2,1-c][1,4]oxazin-3-yl]benzonitrile], the IC50 is 70 nM.

Take `Cc1nc(CC(=O)N2CCN3C[C@H](c4ccc(F)c(C#N)c4C)OC[C@H]3C2)ccc1-n1cnnn1` [Example 131, 6-fluoro-2-methyl-3-[(3S,9aR)-8-{[6-methyl-5-(1H-tetrazol-1-vl)pvridin-2-yl]acetul}octahydropyrazino[2,1-c][1,4]oxazin-3-yl]benzonitrile]: the IC50 was found to be 200 nM.

On to `Cc1c([C@@H]2CN3CCN(C(=O)Cc4cccc(-n5cnnn5)n4)C[C@H]3CO2)ccc(F)c1C#N` [Example 98, 6-fluoro-2-methyl-3-[(3R,9aS)-8-{[6-(1H-tetrazol-1-yl)pyridin-2-yl]acetyl}octahydropyrazino[2,1-c][1,4]oxazin-3-yl]benzonitrile], for which the IC50 amounted to 560 nM. With `N#Cc1c(F)cc([C@H]2CN3CCN(C(=O)Cc4ccc(-n5cnnn5)nc4)C[C@@H]3CO2)cc1F` [Example 108, 2,6-difluoro-4-[(3S,9aR)-8-{[6-(1H-tetrazol-1-yl)pyridin-3-yl]acetyl}octahydropyrazino[2,1-c][1,4]oxazin-3-yl]benzonitrile], the IC50 worked out at 490 nM. On to `Cc1cc([C@H]2CN3CCN(C(=O)Cc4ccc(-n5cnnn5)nc4)C[C@@H]3CO2)c(C)c(C#N)c1F` [Example 173, 2-fluoro-3,6-dimethyl-5-[(3S,9aR)-8-{[6-(1H-tetrazol-1-vl)pvridin-3-yl]acetyl}octahydropyrazino[2,1-c][1,4]oxazin-3-yl]benzonitrile], for which the IC50 was found to be 300 nM. Consider `Cc1c([C@H]2CN3CCN(C(=O)Cc4cnc(-n5cnnn5)nc4)C[C@H]3CN2)ccc(F)c1C#N` [Example 189, 3-((3S,9aR)-8-(2-(2-(1H-tetrazol-1-yl)pyrimidin-5-yl)acetyl)octahydro-1H-pyrazino[1,2-a]pyrazin-3-yl)-6-fluoro-2-methylbenzonitrile], for which the IC50 is 120 nM. Still for that read-out and setting: the value for `Cc1c([C@H]2CN3CCN(C(=O)Cc4ccc(-n5cnnn5)cn4)C[C@@H]3CO2)ccc(F)c1C#N` [Example 31, 6-fluoro-2-methyl-3-[(3S,9aR)-8-{[5-(1H-tetrazol-1-yl)pyridin-2-yl]acetyl}octahydropyrazino[2,1-c][1,4]oxazin-3-yl]benzonitrile] was 160 nM; that for `Cc1c([C@H]2CN3CCN(C(=O)C(F)(F)c4cnc(-n5cnnn5)nc4)C[C@H]3CO2)ccc(F)c1C#N` [Example 188, 3-((3S,9aS)-8-(2-(2-(1H-tetrazol-1-yl)pyrimidin-5-yl)-2,2-difluoroacetyl)octahydropyrazino[2,1-c][1,4]oxazin-3-yl)-6-fluoro-2-methylbenzonitrile] was 350 nM. Same read-out and setting: the value for `Cc1c([C@H]2CN3CCN(C(=O)Cc4cnc(-n5cnnn5)c(F)c4)C[C@H]3CO2)ccc(F)c1C#N` [Example 149, 6-fluoro-3-[(3S,9aS)-8-{[5-fluoro-6-(1H-tetrazol-1-yl)pyridin-3-yl]acetyl}octahydropyrazino[2,1-c][1,4]oxazin-3-yl]-2-methylbenzonitrile] was 130 nM; that for `COc1cc([C@@H]2CN3CCN(C(=O)Cc4cnc(-n5cnnn5)cc4C)C[C@@H]3CO2)ccc1C#N` [Example 45, 2-methoxy-4-[(3R,9aR)-8-{[4-methyl-6-(1H-tetrazol-1-vl)pvridin-3-yl]acetyl}octahydropyrazino[2,1-c][1,4]oxazin-3-yl]benzonitrile] was 250 nM. Regarding `COc1cc(-n2cnnn2)cnc1CC(=O)N1CCN2C[C@@H](c3ccc(F)c(C#N)c3C)OC[C@H]2C1` [Example 124, 6-fluoro-3-[(3R,9aR)-8-{[3-methoxy-5-(1H-tetrazol-1-vl)pvridin-2-yl]acetyl}octahydropyrazino[2,1-c][1,4]oxazin-3-yl]-2-methylbenzonitrile], the half-inhibitory concentration (IC50) was determined as 330 nM. On to `N#Cc1c(F)cc([C@@H]2CN3CCN(C(=O)Cc4ccc(-n5cnnn5)nc4)C[C@@H]3CO2)cc1F` [Example 107, 2,6-difluoro-4-[(3R,9aR)-8-{[6-(1H-tetrazol-1-yl)pyridin-3-yl]acetyl}octahydropyrazino[2,1-c][1,4]oxazin-3-yl]benzonitrile], for which the IC50 was found to be 170 nM.

The same test, now with this note: Thallium Flux IC50.
Consider `N#Cc1c(F)ccc([C@H]2CN3CCN(C(=O)Cc4cnc(-n5cnnn5)nc4)C[C@H]3CO2)c1Cl` [Example 137, 2-chloro-6-fluoro-3-[(3S,9aS)-8-{[2-(1H-tetrazol-1-yl)pyrimidin-5-yl]acetyl}octahydropyrazino[2,1-c][1,4]oxazin-3-yl]benzonitrile], for which 60 nM corresponded to half-maximal inhibition (IC50). Same read-out and setting: the result for `Cc1nc(-n2cnnn2)ccc1CC(=O)N1CCN2C[C@H](c3cccc(C#N)c3C)OC[C@@H]2C1` [Example 92, 2-methyl-3-[(3S,9aS)-8-{[2-methyl-6-(1H-tetrazol-1-yl)pyridin-3-yl]acetyl}octahydropyrazino[2,1-c][1,4]oxazin-3-yl]benzonitrile] reads 200 nM. In turn, `N#Cc1c(F)cc([C@@H]2CN3CCN(C(=O)Cc4cnc(-n5cnnn5)nc4)C[C@@H]3CO2)cc1F` [Example 115, 2,6-difluoro-4-[(3R,9aR)-8-{[2-(1H-tetrazol-1-yl)pyrimidin-5-yl]acetyl}octahydropyrazino[2,1-c][1,4]oxazin-3-yl]benzonitrile] displayed an IC50 of 270 nM.

On to `N#Cc1c(F)ccc([C@@H]2CN3CCN(C(=O)Cc4ccc(-n5cnnn5)nc4)C[C@H]3CO2)c1F` [Example 11, 2,6-difluoro-3-[(3R,9aS)-8{[6-(1H-tetrazol-1-yl)pyridin-3-yl]acetyl}octahydropyrazino[2,1-c][1,4]oxazin-3-yl]benzonitrile], for which half-maximal inhibition (IC50) was put at 90 nM.

For `Cc1c([C@@H]2CN3CCN(C(=O)Cc4cnc(-n5cnnn5)cn4)C[C@@H]3CO2)ccc2c1COC2=O` [Example 123, 4-methyl-5-[(3R,9aR)-8-{[5-(1H-tetrazol-1-yl)pyrazin-2-yl]acetyl}octahydropyrazino[2,1-c] [1,4]oxazin-3-yl]-2-benzofuran-1(3H)-one], the IC50 stood at 690 nM. For `Cc1c([C@@H]2CN3CCN(C(=O)Cc4cnc(-n5cnnn5)cn4)C[C@H]3CO2)ccc(F)c1C#N` [Example 75, 6-fluoro-2-methyl-3-[(3R,9aS)-8-{[5-(1H-tetrazol-1-yl)pyrazin-2-yl]acetyl}octahydropyrazino[2,1-c][1,4]oxazin-3-yl]benzonitrile], the IC50 was 130 nM. The same measure, in the same setting: the value for `N#Cc1c(F)ccc([C@@H]2CN3CCN(C(=O)Cc4cnc(-n5cnnn5)nc4)C[C@@H]3CO2)c1Cl` [Example 125, 2-chloro-6-fluoro-3-[(3R,9aR)-8-{[2-(1H-tetrazol-1-yl)pyrimidin-5-yl]acetyl}octahydropyrazino[2,1-c][1,4]oxazin-3-yl]benzonitrile] was 60 nM; that for `Cc1c([C@@H]2CN3CCN(C(=O)Cc4ncc(-n5cnnn5)cc4Cl)C[C@@H]3CO2)ccc(F)c1C#N` [Example 154, 3-[(3R,9aR)-8-{[3-chloro-5-(1H-tetrazol-1-yl)pyridin-2-yl]acetyl}octahydropyrazino[2,1-c][1,4]oxazin-3-yl]-6-fluoro-2-methylbenzonitrile] was 200 nM.

Turning to `Cc1c([C@@H]2CN3CCN(C(=O)Cc4cnc(-n5cnnn5)nc4)C[C@H]3CN2)ccc(F)c1C#N` [Example 193, 6-fluoro-2-methyl-3-[(3R,9aR)-8-{[2-(1H-tetrazol-1-yl)pyrimidin-5-yl]acetyl}octahydro-2H-pyrazino[1,2-a]pyrazin-3-yl]benzonitrile], 100 nM corresponded to half-maximal inhibition (IC50). The same measure, in the same setting: the value for `Cc1cc(-n2cnnn2)cnc1CC(=O)N1CCN2C[C@H](c3ccc(F)c(C#N)c3C)OC[C@@H]2C1` [Example 85, 6-fluoro-2-methyl-3-[(3S,9aS)-8-{[3-methyl-5-(1H-tetrazol-1-vl)pvridin-2-yl]acetyl}octahydropyrazino[2,1-c][1,4]oxazin-3-yl]benzonitrile] was 240 nM; that for `Cc1c([C@H]2CN3CCN(C(=O)Cc4cnc(-n5cnnn5)cn4)C[C@H]3CO2)ccc2c1COC2=O` [Example 83] was 160 nM; that for `COc1cc([C@@H]2CN3CCN(C(=O)Cc4ccc(-n5cnnn5)nc4)C[C@H]3CO2)cc(F)c1C#N` [Example 114, 2-fluoro-6-methoxy-4-[(3R,9aS)-8-{[6-(1H-tetrazol-1-vl)pvridin-3-yl]acetyl}octahydropyrazino[2,1-c][1,4]oxazin-3-yl]benzonitrile] was 110 nM.
